Data on four molecules can be found in patent US4048299A, “Anticaries confectionaries and oral health products” (William Wrigley, Jr. Co., priority 1970, dated 1977).

Read-outs that look alike come from different tables or passages of the source.

Assay [1] has as its system Lactobacillus casei and Streptococcus sp. FA-1. As to the kind of experiment: Acid-production inhibition by broth-tube assay, 0.1 percent of compound. The format is cell-based. Particulars: for inhibition at 0.1 %: read-out: Activity, Acid-Production Inhibition%. On the procedure: ^(a) Activity was measured by broth-tube assay to determine percent
(§1) acid-production inhibition obtained by Lactobacillus casei and
Streptococcus sp. FA-1 in the presence of 0.1 percent of compound.
^(a) Activity was measured by broth-tube assay to determine percent o
as §1
Streptococcus sp. FA-1 in the presence of 0.1% of compound. Symbols

Another assay has as its system Streptococcus sp. GS-5. As to the kind of experiment: Acid production inhibition, broth-tube technique. The format is cell-based. Particulars: Table XI, emulsion with 4 parts Tween 20. Here is the method: (a)2,4-Hexadienal was prepared as an emulsion with 4 parts of Tween 20.
For assay [2], the system named is oral microorganisms. Put plainly: Acid production inhibition in vitro (summary). Particulars: in words, summary of tables. The assay is classed as cell-based. On the procedure: (§2) Other in vitro evaluations utilized a broth tube analysis of representative anticaries aldehydes incorporated in the vehicles of this invention against cultures of acid producing microorganisms normally present in the mouth. Standard laboratory procedures were utilized throughout to evaluate the acid production inhibition and growth inhibition over the incubation time of up to 24 hours.

For assay [3], the system named is oral microorganisms. As to the kind of experiment: Growth inhibition in vitro (summary). Particulars: in words, summary of tables. The format is cell-based. On the procedure:
as §2

For another assay, the system named is Streptococcus sp. FA-1. Put plainly: Acid production inhibition, broth-tube technique. The following applies: Table XI, emulsion with 4 parts Tween 20.
In a further assay the test system is Lactobacillus casei. As to the kind of experiment: Acid production inhibition, broth-tube technique. Particulars: Table XI, emulsion with 4 parts Tween 20.
A further assay has as its system Streptococcus spp. FA-1. Put plainly: Growth inhibition of oral microorganisms in vitro, pour plates. The format is cell-based. The following applies: Table IX; for Bacterial Population, Experimental: control 2 × 10^8 to 5 × 10^8; for Inhibition (growth): pour plates incubated 48 - 72 hours. Here is the method: (§3) (a)Determined on freshly grown pure cultures. Pour plates were incubated

The next assay relates to L. casei. The assay is described as above. The assay is classed as cell-based, Lactobacillus casei. Particulars: Table IX; for Bacterial Population, Experimental: control 8 × 10^8 to 1 × 10^9; for Inhibition (growth): pour plates incubated 48 - 72 hours. Here is the method: as §3
Setting [4] is: Table X, 0.1 percent of compound.

For `CC=CC=CC=O` [2,4-Hexadienal], in assay [1] (Table XII, 0.1% of compound), the “Activity, Acid-Production Inhibition, %” value is “++++ (99 to 100)”. In addition, the “Inhibition of Acid Production” value with Streptococcus sp. GS-5 (0.01 percent) is reported as 8%; in the assay on Streptococcus sp. GS-5 (0.025 percent), 35%; in the assay on Streptococcus sp. GS-5 (0.05 percent) it was 97%; in the assay with Streptococcus sp. GS-5 (0.075 percent), 99%; with Streptococcus sp. GS-5 (0.10 percent) it was 100%; in the assay on Streptococcus sp. FA-1 (0.01 percent) it was 31%. Further, the “Inhibition of Acid Production” value with Streptococcus sp. FA-1 (0.025 percent) is 92%; with Streptococcus sp. FA-1 (0.05 percent) it was 99%; in the assay on Streptococcus sp. FA-1 (0.075 percent), 99%; with Streptococcus sp. FA-1 (0.10 percent) it was 100%; in the assay on Lactobacillus casei (0.01 percent), 27%; in the assay with Lactobacillus casei (0.025 percent), 43%. Besides, the figures for the “Inhibition of Acid Production” value in the assay on Lactobacillus casei (0.05 percent), in the assay on Lactobacillus casei (0.075 percent) and with Lactobacillus casei (0.10 percent) were 88%, 94% and 98%, respectively. Also, the Acid Production Inhibition entry in the assay on oral microorganisms [2] is listed as “excellent acid production inhibition”. In addition, the Growth Inhibition result with oral microorganisms [3] is on record as “little or no growth inhibition”.
`CCCC=CC=O` [2-Hexene-1-al]: the figures for the “Bacterial Population, Experimental” value with Streptococcus spp. FA-1 and in the assay with L. casei were 9 × 10^7 and 8 × 10^8, respectively. Also, the “Inhibition (growth)” value in the assay on Streptococcus spp. FA-1 and in the assay on L. casei was “Insignificant” each time. Also, in assay [1], the inhibition at 0.1 % lay in the range of 90 to 98%. Moreover, the Acid Production Inhibition entry in the assay with oral microorganisms [2] is “excellent acid production inhibition”. For the same molecule, in the assay on oral microorganisms [3], the Growth Inhibition entry was “little or no growth inhibition”.
As for `CCCCCCC=O` [n-Heptaldehyde], in the assay on Streptococcus spp. FA-1, the “Bacterial Population, Experimental” value is 3 × 10^8 and the “Inhibition (growth)” value is recorded as “Insignificant”. For the same molecule, in the assay on L. casei, the “Bacterial Population, Experimental” value is listed as 1 × 10^9 and the “Inhibition (growth)” value is on record as “None”. In addition, the inhibition at 0.1 % in assay [1] (setting [4]) lay in the range of 75 to 89%. For the same molecule, in the assay with oral microorganisms [2], the Acid Production Inhibition result was “excellent acid production inhibition”. The Growth Inhibition result in the assay on oral microorganisms [3] is recorded as “little or no growth inhibition”.
As to `CCCCCC=O` [n-Hexaldehyde], in the assay on Streptococcus spp. FA-1, the “Bacterial Population, Experimental” value is recorded as 4 × 10^8 and the “Inhibition (growth)” value is reported as “Insignificant”. In the assay on L. casei, the “Bacterial Population, Experimental” value is 1 × 10^9 and the “Inhibition (growth)” value is reported as “None”. The inhibition at 0.1 % in assay [1] (setting [4]) was in the range of 25 to 74%. Besides, in the assay with oral microorganisms [2], the Acid Production Inhibition result was “excellent acid production inhibition”. Also, the Growth Inhibition entry with oral microorganisms [3] is “little or no growth inhibition”.

What is called inhibition is the drop in the measured response relative to a control, in per cent.
